In patent publication US4073903A, “3-Desacetoxymethyl-3- 5'(1-methyltetrazolyl)thio!methyl-7- 1-(4-nitr oimidazolyl)acetyl!aminocephalosporanic acid” (Pierrel S.p.A., priority 1975, dated 1978):
Values after ≈ are worked out from the molar mass of the structure shown. Like-named read-outs stand apart in the source and are kept apart here.

What was measured:
Salmonella wien = assay: MIC against Ampicillin-resistant clinical isolates, broth dilution test (Table IV); conditions: Salmonella enterica, 24 h
Klebsiella pneumoniae [1] = assay: MIC, twofold serial broth dilution (Table I); assay type: cell-based; conditions: strain ISM 68/67' 370 V', Tryptose Phosphate Broth, 37° C, 24 hours, read-out: Minimum inhibitory concentration (MIC)
Streptococcus uberis = assay: MIC, twofold serial broth dilution (Table I); assay type: cell-based; conditions: ATCC9927, strain ATCC 9927, Todd Hewitt Broth, 37° C, 24 hours, read-out: Minimum inhibitory concentration (MIC)
Staphylococcus aureus = assay: MIC, twofold serial broth dilution (Table I); assay type: cell-based; conditions: 24 h, 37° C, read-out: Minimum inhibitory concentration (MIC)
Serratia marcescens = assay: MIC, twofold serial broth dilution (Table I); assay type: cell-based; conditions: strain ISM 68/189, Mueller Hinton Broth, 37° C, 24 hours, read-out: Minimum inhibitory concentration (MIC)
Proteus morganii = assay: MIC, twofold serial broth dilution (Table I); assay type: cell-based; conditions: Morganella morganii; strain ISM-LRP 18; Mueller Hinton Broth; 37° C, 24 hours; read-out: Minimum inhibitory concentration (MIC)
Proteus mirabilis = assay: MIC, twofold serial broth dilution (Table I); assay type: cell-based; conditions: 37° C, 24 hours, read-out: Minimum inhibitory concentration (MIC)
Brucella suis = assay: microbe, parasite or virus in culture; assay type: cell-based; conditions: 24 h, read-out: Minimum inhibitory concentration (MIC)
[2] = test system: wide spectrum of microorganisms both Gram-positive and Gram-negative; assay: In vitro antimicrobial activity (overall statement); assay type: cell-based
Escherichia coli [3] = assay: Treatment of mice systemically infected with Escherichia coli (Table V); conditions: in Mus musculus, 168 h, read-out: ED50 per treatment
Salmonella essen = assay: MIC against Ampicillin-resistant clinical isolates, broth dilution test (Table IV); conditions: Salmonella enterica, 24 h, read-out: Minimun inhibitory concentration (MIC)
Klebsiella pneumoniae [4] = assay: MIC against clinical isolates, broth dilution test (Table II); conditions: for MIC: Klebsiella pneumoniae, 24 h
Solubility = assay type: physicochemical; conditions: crystals
Streptococcus mitis = assay: MIC, twofold serial broth dilution (Table I); assay type: cell-based; conditions: ATCC9895, strain ATCC 9895 Ty V, Todd Hewitt Broth, 37° C, 24 hours, read-out: Minimum inhibitory concentration (MIC)
Klebsiella pneumoniae [5] = conditions: in Mus musculus, 168 h, read-out: ED50 per treatment
Enterobacter cloacae = assay: MIC, twofold serial broth dilution (Table I); assay type: cell-based; conditions: strain ISM 71/32, Tryptose Phosphate Broth, 37° C, 24 hours, read-out: Minimum inhibitory concentration (MIC)
Citrobacter freundii = assay: MIC, twofold serial broth dilution (Table I); assay type: cell-based
Escherichia coli [6] = assay: MIC, twofold serial broth dilution (Table I); assay type: cell-based; conditions: ATCC19138, strain ATCC 19138 0 group 6, Tryptose Phosphate Broth, 37° C, 24 hours, read-out: Minimum inhibitory concentration (MIC)
Proteus rettgeri = assay: MIC, twofold serial broth dilution (Table I); assay type: cell-based; conditions: Providencia rettgeri; strain ISM-LRP 21; Mueller Hinton Broth; 37° C, 24 hours; read-out: Minimum inhibitory concentration (MIC)
Arizona sp. = assay: MIC, twofold serial broth dilution (Table I); assay type: cell-based; conditions: strain ISM 67/9; Tryptose Phosphate Broth; 37° C, 24 hours; read-out: Minimum inhibitory concentration (MIC)
Pseudomonas aeruginosa = assay: MIC, twofold serial broth dilution (Table I); assay type: cell-based; conditions: strain ISM-LRP 9, Tryptose Phosphate Broth, 37° C, 24 hours, read-out: Minimum inhibitory concentration (MIC)
[7] = test system: systemically infected mice; assay: In vivo activity in systemically infected mice (overall statement); design: species or system Charles River CD 1 female mice; conditions: treatment of systemically infected mice
Shigella sonnei = assay: MIC, twofold serial broth dilution (Table I); assay type: cell-based; conditions: strain ISM-LRP 5, Tryptose Phosphate Broth, 37° C, 24 hours, read-out: Minimum inhibitory concentration (MIC)
Text: (§1) In Table I the minimum inhibitory concentrations (MIC) of P-75123 against a variety of Gram-positive and Gram-negative bacteria are listed.

Shigella flexneri = assay: MIC, twofold serial broth dilution (Table I); assay type: cell-based; conditions: strain ISM-LRP 40, Tryptose Phosphate Broth, 37° C, 24 hours, read-out: Minimum inhibitory concentration (MIC)
Text: as §1

Diplococcus pneumoniae = assay: MIC, twofold serial broth dilution (Table I); assay type: cell-based; conditions: Streptococcus pneumoniae; strain Ty XXVII-LRP 53; Todd Hewitt Broth; 37° C, 24 hours; read-out: Minimum inhibitory concentration (MIC)
Text: as §1

Pasteurella multocida = assay: MIC, twofold serial broth dilution (Table I); assay type: cell-based; conditions: ATCC6588, strain ATCC 6588, Tryptose Broth, 37° C, 24 hours, read-out: Minimum inhibitory concentration (MIC)
Streptococcus faecalis = assay: MIC, twofold serial broth dilution (Table I); assay type: cell-based; conditions: Enterococcus faecalis; strain ISM 66/54; Tryptose Phosphate Broth; 37° C, 24 hours; read-out: Minimum inhibitory concentration (MIC)
Streptococcus bovis = assay: MIC, twofold serial broth dilution (Table I); assay type: cell-based; conditions: Streptococcus equinus, ATCC15351; strain ATCC 15351; Todd Hewitt Broth; 37° C, 24 hours; read-out: Minimum inhibitory concentration (MIC)
Salmonella typhi = assay: MIC, twofold serial broth dilution (Table I); assay type: cell-based; conditions: Salmonella enterica, 24 h, read-out: Minimum inhibitory concentration (MIC)
[8] = test system: Enterobacter liquefaciens; assay: MIC, twofold serial broth dilution (Table I); assay type: cell-based; conditions: strain ISM 65/33, Tryptose Phosphate Broth, 37° C, 24 hours, read-out: Minimum inhibitory concentration (MIC)
Shigella dysenteriae = assay: MIC, twofold serial broth dilution (Table I); assay type: cell-based; conditions: 24 h, read-out: Minimum inhibitory concentration (MIC)
Escherichia coli [9] = assay: MIC against clinical isolates, broth dilution test (Table III); conditions: for MIC: Escherichia coli, 24 h
Brucella abortus = assay: microbe, parasite or virus in culture; assay type: cell-based; conditions: 24 h, read-out: Minimum inhibitory concentration (MIC)
Salmonella heidelberg = assay: MIC against Ampicillin-resistant clinical isolates, broth dilution test (Table IV); conditions: Salmonella enterica, 24 h, read-out: Minimun inhibitory concentration (MIC)
[10] = read-out: Minimum inhibitory concentration (MIC)

## Cn1nnnc1SCC1=C(C(=O)O)N2C(=O)C(NC(=O)Cn3cnc([N+](=O)[O-])c3)C2SC1 (centres unmarked) [P-75123, 7-1-(1H-4-nitroimidazolyl)acetyl!amino-3-5-(1H-1-methyltetrazolyl)thio!methyl-3-cephem-4-carboxylic acid]
Salmonella wien; read-out: Minimun inhibitory concentration (MIC), Ampicillin-resistant clinical isolate LRP 138
  MIC: 3.12 µg/mL (≈ 6.48 µM)
Salmonella wien; read-out: Minimun inhibitory concentration (MIC), Ampicillin-resistant clinical isolate LRP 140
  MIC: 6.25 µg/mL (≈ 13 µM)
Salmonella wien; read-out: Minimun inhibitory concentration (MIC), Ampicillin-resistant clinical isolate LRP 141
  MIC: 6.25 µg/mL (≈ 13 µM)
Klebsiella pneumoniae [1]
  MIC: 0.78 µg/mL (≈ 1.62 µM)
Streptococcus uberis
  MIC: 0.097 µg/mL (≈ 0.201 µM)
Staphylococcus aureus; strain ATTC 653P, Tryptose Phosphate Broth
  MIC: 0.195 µg/mL (≈ 0.405 µM)
Staphylococcus aureus; strain ISM 72/10, Tryptose Phosphate Broth
  MIC: 0.78 µg/mL (≈ 1.62 µM)
Serratia marcescens
  MIC: 100 µg/mL (≈ 208 µM)
Proteus morganii
  MIC: 50 µg/mL (≈ 104 µM)
Proteus mirabilis; ATCC10005, strain ATCC 10005, Mueller Hinton Broth
  MIC: 3.12 µg/mL (≈ 6.48 µM)
Proteus mirabilis; strain ISM 66/53, Mueller Hinton Broth
  MIC: 3.12 µg/mL (≈ 6.48 µM)
Brucella suis
  MIC: 12.5 µg/mL (≈ 26 µM)
[2]
  "in vitro" antimicrobial activity: high antimicrobial activity
Escherichia coli [3]
  ED50: 35 mg/kg
Salmonella essen
  MIC: 1.56 µg/mL (≈ 3.24 µM)
Klebsiella pneumoniae [4]; [10]
  MIC: 1.56 µg/mL (≈ 3.24 µM)
Klebsiella pneumoniae [4]; read-out: Minimum inhibitory concentration (MIC), clinical isolate LRP 129
  MIC: 0.39 µg/mL (≈ 0.81 µM)
Klebsiella pneumoniae [4]; read-out: Minimum inhibitory concentration (MIC), clinical isolate LRP 130
  MIC: 6.25 µg/mL (≈ 13 µM)
Klebsiella pneumoniae [4]; read-out: Minimum inhibitory concentration (MIC), clinical isolate LRP 131
  MIC: 3.12 µg/mL (≈ 6.48 µM)
Klebsiella pneumoniae [4]; read-out: Minimum inhibitory concentration (MIC), clinical isolate LRP 132
  MIC: 0.39 µg/mL (≈ 0.81 µM)
Klebsiella pneumoniae [4]; read-out: Minimum inhibitory concentration (MIC), clinical isolate LRP 133
  MIC: 0.78 µg/mL (≈ 1.62 µM)
Klebsiella pneumoniae [4]; read-out: Minimum inhibitory concentration (MIC), clinical isolate LRP 135
  MIC: 3.12 µg/mL (≈ 6.48 µM)
Klebsiella pneumoniae [4]; read-out: Minimum inhibitory concentration (MIC), clinical isolate LRP 136
  MIC: 3.12 µg/mL (≈ 6.48 µM)
Klebsiella pneumoniae [4]; read-out: Minimum inhibitory concentration (MIC), clinical isolate LRP 137
  MIC: 0.78 µg/mL (≈ 1.62 µM)
Klebsiella pneumoniae [4]; clinical isolate LRP 134
  Minimum inhibitory concentration (MIC): 1.56 µg/mL (≈ 3.24 µM)
Solubility; dimethylsulfoxide
  Solubility in dimethylsulfoxide: soluble in dimethylsulfoxide
Solubility; water
  Solubility in water: practically insoluble in water
Streptococcus mitis
  MIC: 0.195 µg/mL (≈ 0.405 µM)
Klebsiella pneumoniae [5]
  ED50: 49 mg/kg
Enterobacter cloacae
  MIC: > 100 µg/mL
Citrobacter freundii; 24 h, read-out: Minimum inhibitory concentration (MIC), strain ISM 65/74, Tryptose Phosphate Broth, 37° C
  MIC: 1.56 µg/mL (≈ 3.24 µM)
Citrobacter freundii; strain ISM 69/30, Tryptose Phosphate Broth, 37° C, 24 hours, read-out: Minimum inhibitory concentration (MIC)
  MIC: 0.78 µg/mL (≈ 1.62 µM)
Escherichia coli [6]
  MIC: 0.78 µg/mL (≈ 1.62 µM)
Proteus rettgeri
  MIC: 25 µg/mL (≈ 51.9 µM)
Arizona sp.
  MIC: 0.78 µg/mL (≈ 1.62 µM)
Pseudomonas aeruginosa
  MIC: > 100 µg/mL
[7]
  activity "in vivo": very good activity
Shigella sonnei
  MIC: 1.56 µg/mL (≈ 3.24 µM)
Shigella flexneri
  MIC: 0.78 µg/mL (≈ 1.62 µM)
Diplococcus pneumoniae
  MIC: 0.097 µg/mL (≈ 0.201 µM)
Pasteurella multocida
  MIC: 0.39 µg/mL (≈ 0.81 µM)
Streptococcus faecalis
  MIC: 100 µg/mL (≈ 208 µM)
Streptococcus bovis
  MIC: 0.049 µg/mL (≈ 0.102 µM)
Salmonella typhi
  MIC: 0.78 µg/mL (≈ 1.62 µM)
[8]
  MIC: 100 µg/mL (≈ 208 µM)
Shigella dysenteriae
  MIC: 0.78 µg/mL (≈ 1.62 µM)
Escherichia coli [9]; [10]
  MIC: 1.56 µg/mL (≈ 3.24 µM)
Escherichia coli [9]; read-out: Minimum inhibitory concentration (MIC), clinical isolate LRP 87
  MIC: 3.12 µg/mL (≈ 6.48 µM)
Escherichia coli [9]; read-out: Minimum inhibitory concentration (MIC), clinical isolate LRP 110
  MIC: 0.78 µg/mL (≈ 1.62 µM)
Escherichia coli [9]; read-out: Minimum inhibitory concentration (MIC), clinical isolate LRP 143
  MIC: 0.78 µg/mL (≈ 1.62 µM)
Escherichia coli [9]; read-out: Minimum inhibitory concentration (MIC), clinical isolate LRP 152
  MIC: 50 µg/mL (≈ 104 µM)
Escherichia coli [9]; read-out: Minimum inhibitory concentration (MIC), clinical isolate LRP 159
  MIC: 0.78 µg/mL (≈ 1.62 µM)
Escherichia coli [9]; clinical isolate LRP 96
  Minimum inhibitory concentration (MIC): 1.56 µg/mL (≈ 3.24 µM)
Escherichia coli [9]; clinical isolate LRP 150
  Minimum inhibitory concentration (MIC): 1.56 µg/mL (≈ 3.24 µM)
Escherichia coli [9]; clinical isolate LRP 151
  Minimum inhibitory concentration (MIC): 1.56 µg/mL (≈ 3.24 µM)
Escherichia coli [9]; clinical isolate LRP 154
  Minimum inhibitory concentration (MIC): 1.56 µg/mL (≈ 3.24 µM)
Escherichia coli [9]; clinical isolate LRP 155
  Minimum inhibitory concentration (MIC): 1.56 µg/mL (≈ 3.24 µM)
Escherichia coli [9]; clinical isolate LRP 156
  Minimum inhibitory concentration (MIC): 1.56 µg/mL (≈ 3.24 µM)
Escherichia coli [9]; clinical isolate LRP 158
  Minimum inhibitory concentration (MIC): 1.56 µg/mL (≈ 3.24 µM)
Escherichia coli [9]; clinical isolate LRP 163
  Minimum inhibitory concentration (MIC): 1.56 µg/mL (≈ 3.24 µM)
Brucella abortus
  MIC: 25 µg/mL (≈ 51.9 µM)
Salmonella heidelberg
  MIC: 1.56 µg/mL (≈ 3.24 µM)
